{
  "source": "patent EP3501540A1",
  "about": "“MITOCHONDRIAL TRIFUNCTIONAL PROTEIN (MTP) INHIBITORS FOR USE IN THE TREATMENT OF HIGH MITOCHONDRIAL RESPIRATION (OX+) CANCERS” (UNIVERSITE DE BORDEAUX, priority 2017, dated 2019)",
  "key": {"[1]": {"system": "respiratory chain complex I", "assay": "Complex I enzymatic activity assay (spectrophotometric)", "type": "biochemical, human", "conditions": "A549 cells: 500 µM Trimetazidine 48H; cell homogenate: 100 µM palmitoyl-Coa, 10 min incubation", "experimental": "Enzymatic activities were measured spectrophotometrically, in homogenate of cells using the following reaction media: Complex I - 50mM potassium phosphate buffer, 100µM Decylubiquinone. The reaction was started by the addition of 100µM NADH and carried out at 37°C for 15 min in 340nm. After the stabilization of the signal was added 12,5µM Rotenone. Complex II - 25mM potassium phosphate buffer, 1mM KCN, 100µM ATP, 50µM DCPIP, 20mM succinate. The reaction was started by the addition of 100µM decylubiquinone and carried out at 37°C for 15 min in 660nm. Complex III - 100mM potassium phosphate buffer, 50µM cytochrome c, 250µM EDTA. The reaction was started by the addition of 100µM decylubiquinol and carried out at 37°C for 15 min in 550nm. After the stabilization of the signal was added 12,5µg/ml antimycin A. Complex IV - 100uM reduced cytochrome C in 50mM potassium phosphate buffer. The reaction was started by the addition of homogenate of cells and carried out at 37°C for 15 min in 550nm."}, "H460 cells": {"system": "H460 cells", "assay": "Sensitivity to chemotherapeutic drugs", "type": "cell-based, human", "conditions": "H460 cells compared with A549 cells; data not shown"}, "A549 (OX+) cells": {"system": "A549 (OX+) cells", "assay": "Sulphorodamine B viability assay", "type": "cell-based, human", "conditions": "A549 (OX+) cells in vitro", "experimental": "A549_LUC and H460_LUC, human lung cancer cells, were stably transfected with luciferase (pRRLsin-MND-Luc-WPRE). […] Also, they were tested as luciferase positive using direct application of 2 mL of a 150 mg/ml solution of luciferine (Firefly Luciferin, Caliper Lifescience Corp, USA), followed by immediate bioluminescent imaging using the photonIMAGER™ optima system.\nBriefly, cells were seeded in 96-well plates and medium was changed after 24 h, then Test Reagent was added on top of the cell wells and incubated for up to 72h. The viability assay was performed using Sulforhodamine B colorimetric assay for viability assay following the protocol described by Vanicha Vichai & Kanyawim Kirtikara."}, "HADHA": {"system": "HADHA", "assay": "HADHA expression in cells", "type": "cell-based, human", "conditions": "A549 cells; LiCl 20 mM", "experimental": "Cells pellet were lysed in a buffer containing RIPA IX (Sigma-Aldrich) and protease inhibitors cocktail (chymostatin, leupeptin, antipain, pepstatin A - Sigma-Aldrich). Protein lysates were placed on ice for 15 min, vortexed and cleared by centrifugation at 12,000 × g for 15 min at 4 °C. The supernatants were retrieved and frozen at -80 °C until use. Protein concentration was performed using the Pierce™ BCA Protein Assay Kit.\nSamples (20ug) were dissolved in Laemmli buffer (Bio-Rad) containing 2% mercaptoethanol by incubation for 15 min at 65°C and separated on a 4-15% SDS-polyacrylamide gradient TGX STAIN FREE mini-gel (Biorad). The gels are activated by UV with chemidoc (Biorad). Proteins were transferred electrophoretically to 0.45 µm of nitrocellulose membranes for 7 min at 2.5 Amp in Transfert buffer with Trans-Blot Turbo (biorad). Membranes were blocked 1h in odyssey buffer (eurobio) and incubated overnight in a mixture of antibodies diluted in odyssey buffer. After three washes with PBS-0.05% Tween 20, the membranes were incubated for 1 h with second antibody (LYCOR) diluted in odyssey buffer. This secondary antibody was detected by fluorescence with odyssey. Proteins were detected using specific antibodies (abcam) and total protein was used as the loading control. Primary antibodies (abcam®) against HADHA, VLCAD, mt-ETFA, mt-ETFB, NDUFS2 and NDUFAB1."}},
  "data": [
    {"compound": "CCCCCCCCCCCCCCCC(=O)SCCNC(=O)CCNC(=O)[C@H](O)C(C)(C)COP(=O)(O)OP(=O)(O)OC[C@H]1O[C@@H](n2cnc3c(N)ncnc32)[C@H](O)[C@@H]1OP(=O)(O)O", "note": "[palmitoyl-CoA]", "values": [
      {"measurement": "respiratory chain complex I activity", "setting": "[1]", "result": "inhibition"}
    ]},
    {"compound": "O=c1[nH]cc(F)c(=O)[nH]1", "note": "[5-fluorouracile]", "values": [
      {"measurement": "sensitivity to the chemotherapeutic drugs", "setting": "H460 cells", "result": "higher sensitivity"}
    ]},
    {"compound": "COc1ccccc1OCC(O)CN1CCN(CC(=O)Nc2c(C)cccc2C)CC1", "note": "(racemic) [Ranolazine, (±)-N-(2,6-dimethylphenyl)-4-[2-hydroxy-3-(2-methoxyphenoxy)-propyl]-1-piperazineacetamide]", "values": [
      {"measurement": "cell viability", "setting": "A549 (OX+) cells", "result": "dose-dependent loss"}
    ]},
    {"compound": "COc1cc([C@@H]2c3cc4c(cc3[C@@H](O[C@@H]3O[C@@H]5CO[C@@H](C)O[C@H]5[C@H](O)[C@H]3O)[C@H]3COC(=O)[C@H]23)OCO4)cc(OC)c1O", "note": "[etoposide]", "values": [
      {"measurement": "sensitivity to the chemotherapeutic drugs", "setting": "H460 cells", "result": "higher sensitivity"}
    ]},
    {"compound": "COc1cccc2c1C(=O)c1c(O)c3c(c(O)c1C2=O)C[C@@](O)(C(=O)CO)C[C@@H]3O[C@H]1C[C@H](N)[C@H](O)[C@H](C)O1", "note": "[doxorubicin]", "values": [
      {"measurement": "sensitivity to the chemotherapeutic drugs", "setting": "H460 cells", "result": "higher sensitivity"}
    ]},
    {"compound": "lithium-chloride", "values": [
      {"measurement": "expression of HADHA", "setting": "HADHA", "result": "stimulated"}
    ]},
    {"compound": "COC(=O)c1cccc(NS(=O)(=O)c2ccc(C)cc2)c1", "note": "[MSAB, methyl 3-{[(4-methylphenyl)sulfonyl]amino}benzoate]", "values": [
      {"measurement": "expression of HADHA", "setting": "HADHA", "result": "opposite effect"}
    ]}
  ]
}
